In ChEMBL document CHEMBL5724914, “Linking interpersonal differences in gut microbiota composition and drug biotransformation activity” (2024):

What was measured:
[1] = human gut metagenome, 24 h, 2 µM
[2] = human gut metagenome, 24 h, 2 µM; remark: listed apart in the source
[3] = human gut metagenome, 24 h, 2 µM; remark: listed apart in the source
[4] = human gut metagenome, 24 h, 2 µM; remark: listed apart in the source
[5] = human gut metagenome, 24 h, 2 µM; remark: listed apart in the source
[6] = (§1) The drug is tested on Z-003 corresponding to pig gut metagenome with ENA study accession number: PRJEB37062 and ENA sample accession number: ERS12561803 for biotransformation under anaerobic condition. The drug concentrations were measured over 9 timepoints collected between 0 and 24 hours of incubation by liquid-chromatography-coupled mass spectrometry (LC–MS); settings: 2 µM
[7] = human gut metagenome, 24 h, 2 µM; remark: listed apart in the source
[8] = as §1, with “WLS-038” for “Z-003”, “human” for “pig”, “ERS12561745” for “ERS12561803”; settings: 2 µM
[9] = human gut metagenome, 24 h, 2 µM; remark: listed apart in the source
[10] = as §1, with “WLS-098” for “Z-003”, “human” for “pig”, “ERS12561754” for “ERS12561803”; settings: 2 µM
[11] = human gut metagenome, 24 h, 2 µM; remark: listed apart in the source
[12] = as §1, with “Z-009” for “Z-003”, “ERS12561809” for “ERS12561803”; settings: 2 µM
[13] = human gut metagenome, 24 h, 2 µM; remark: listed apart in the source
[14] = as §1, with “WLS-090” for “Z-003”, “human” for “pig”, “ERS12561753” for “ERS12561803”; settings: 2 µM
[15] = as §1, with “WLS-370” for “Z-003”, “human” for “pig”, “ERS12561793” for “ERS12561803”; settings: 2 µM
[16] = as §1, with “Z-005” for “Z-003”, “to” for “to pig gut”, “ERS12561805” for “ERS12561803”; settings: 2 µM
[17] = human gut metagenome, 24 h, 2 µM; remark: listed apart in the source
[18] = human gut metagenome, 24 h, 2 µM; remark: listed apart in the source
[19] = as §1, with “Z-020” for “Z-003”, “rabbit” for “pig”, “ERS12561819” for “ERS12561803”; settings: 2 µM
[20] = human gut metagenome, 24 h, 2 µM; remark: listed apart in the source
Also: call rule not given here.

| Compound | Bacterial Biotransformation [1] | Bacterial Biotransformation [2] | Bacterial Biotransformation [3] | Bacterial Biotransformation [4] | Bacterial Biotransformation [5] | Bacterial Biotransformation [6] | Bacterial Biotransformation [7] | Bacterial Biotransformation [8] | Bacterial Biotransformation [9] | Bacterial Biotransformation [10] | Bacterial Biotransformation [11] | Bacterial Biotransformation [12] | Bacterial Biotransformation [13] | Bacterial Biotransformation [14] | Bacterial Biotransformation [15] | Bacterial Biotransformation [16] | Bacterial Biotransformation [17] | Bacterial Biotransformation [18] | Bacterial Biotransformation [19] | Bacterial Biotransformation [20] |
| --- | --- | --- | --- | --- | --- | --- | --- | --- | --- | --- | --- | --- | --- | --- | --- | --- | --- | --- | --- | --- |
| CSc1ccc2c(c1)C(N1CCN(C)CC1)Cc1ccccc1S2.O=C(O)/C=C\C(=O)O (configuration not stated) | Compound NOT metabolized | Compound NOT metabolized | Compound NOT metabolized | Compound NOT metabolized | Compound NOT metabolized | Compound metabolized | Compound NOT metabolized | Compound NOT metabolized | Compound NOT metabolized | Compound metabolized | Compound NOT metabolized | Compound metabolized | Compound NOT metabolized | Compound metabolized | Compound NOT metabolized | Compound metabolized | Compound NOT metabolized |  |  |  |
| CCc1oc2ccccc2c1C(=O)c1cc(Br)c(O)c(Br)c1 [BENZBROMARONE] | Compound NOT metabolized | Compound NOT metabolized | Compound NOT metabolized | Compound NOT metabolized | Compound metabolized | Compound metabolized | Compound metabolized | Compound metabolized | Compound NOT metabolized | Compound metabolized | Compound metabolized | Compound NOT metabolized | Compound NOT metabolized | Compound metabolized | Compound NOT metabolized | Compound metabolized | Compound metabolized | Compound NOT metabolized | Compound metabolized |  |
| CC(C)C[C@H]1C(=O)N2CCC[C@H]2[C@]2(O)O[C@](NC(=O)[C@@H]3C=C4c5cccc6[nH]c(Br)c(c56)C[C@H]4N(C)C3)(C(C)C)C(=O)N12.CS(=O)(=O)O [BROMOCRIPTINE MESYLATE] | Compound NOT metabolized | Compound metabolized | Compound metabolized |  | Compound NOT metabolized | Compound metabolized | Compound metabolized | Compound metabolized | Compound NOT metabolized | Compound metabolized | Compound metabolized | Compound metabolized | Compound metabolized | Compound metabolized | Compound metabolized | Compound metabolized | Compound NOT metabolized | Compound metabolized |  | Compound metabolized |
| CCOC(=O)[C@H](CCc1ccccc1)N[C@@H](C)C(=O)N1CCC[C@H]1C(=O)O.O=C(O)/C=C\C(=O)O [ENALAPRIL MALEATE] | Compound NOT metabolized | Compound NOT metabolized | Compound NOT metabolized | Compound NOT metabolized | Compound NOT metabolized | Compound NOT metabolized | Compound NOT metabolized | Compound NOT metabolized | Compound NOT metabolized | Compound NOT metabolized | Compound NOT metabolized | Compound metabolized | Compound NOT metabolized | Compound NOT metabolized | Compound NOT metabolized | Compound NOT metabolized | Compound NOT metabolized | Compound NOT metabolized |  | Compound NOT metabolized |
| CN1[C@@H]2CC[C@H]1C[C@@H](OC(=O)[C@H](CO)c1ccccc1)C2 [HYOSCYAMINE] | Compound NOT metabolized |  |  | Compound NOT metabolized | Compound metabolized |  | Compound metabolized |  |  | Compound metabolized | Compound metabolized | Compound metabolized | Compound NOT metabolized |  |  |  |  | Compound NOT metabolized |  |  |
